In patent US20230167109A1, “Aminopiperidine Amides, Derivatives, Compositions, and Uses Related to CXCR4 Modulation” (Emory University, priority 2020, published 2023):

Columns and labels:
CXCR4 = target: T1, CXCR4 (Homo sapiens, UniProt P61073); assay: In vitro binding assay: blocking of CXCR4-targeted TN14003 conjugate on MDA-MB-231 cells
T1 construct: endogenous in cells; host or cells: MDA-MB-231
Procedure: (§1) EC (effective concentration) was calculated as the concentration at which the compound blocks >50% of CXCR4-targeted peptidomimetic conjugate (rhodamine Red X-TN14003). The inhibition % against the chemoattract, CXCL12 was determined by Matrigel invasion assay using 100 nM of compounds.
(§2) After computer evaluation of chemical libraries, seven compounds were tested by in vitro assays. The first binding assay quantified the affinity of compounds to the receptor by measuring the fluorescence of CXCR4-targeted peptidomimetic conjugate (rhodamine Red X-TN14003) after treating CXCR4-positive with each compound, which presents a lower fluorescent intensity for the compound with higher affinity. […] As a secondary orthogonal functional assay, Matrigel invasion assays were performed which measures the inhibitory efficacies of compounds against the chemotaxis between CXCR4-positive cells and the chemokine, CXCL12.
MDA-MB-231 cells were cultured in an eight-well slide chamber for two days. The cells were pre-incubated with the compounds for 15 min, and then fixed with 4% formaldehyde. […] Pictures were analyzed quantitatively with ImageJ. EC (effective concentration) is determined for the concentration at with the compound blocks >50% of CXCR4-targeted TN14003 conjugate using 1, 10, 100, and 1000 nM of compounds. […]

MDA-MB-231 cells = assay: In vitro Matrigel invasion assay (chemotaxis towards CXCL12); type: cell-based; conditions: Homo sapiens, compound at 100 nM, 200 ng/ml CXCL12 as chemoattractant, 22 h
Procedure: as §1, §2
Matrigel invasion chambers were used for invasion assays. MDA-MB-231 cells were cultured on a layer of Matrigel in the upper chamber with compounds at 100 nM, while 200 ng/ml of CXCL12 was added in the lower chamber as a chemoattractant. […] Invading cells at the bottom of the Matrigel were fixed in methanol and stained with H&E. The percentage of invading cells was determined by counting the H&E-stained cells.

[1] = tested on: carrageenan-induced paw edema; assay: In vivo anti-inflammation study, carrageenan-induced mouse paw edema model; conditions: 10 mg/kg i.p., once a day; mice sacrificed 74 h after carrageenan; n=5
Procedure: Acute paw inflammation was induced by subcutaneous injection of 50 μL of λ-carrageenan in left hind paw. The mice in the treatment group were all administered Z7R at 10 mg/kg i.p., while control animals received corresponding i.p. injection of vehicle. Acute inflammation was induced by subcutaneous injection of […], of λ-carrageenan (1% w/v in saline) into the left hind paws of male nude mice (6 weeks, 20 g, Jackson Laboratory, Strain JAZ 007850 J:NU); the other hind paw was used as the non-inflammation control. The compounds were administered intraperitoneally (i.p. injection), 30 min after carrageenan challenge with the dose of 10 mg/kg using the formulation of 10% DMSO and 40% (2-hydroxypropyl)-β-cyclodextrin (CD) in PBS, and then once a day following the initial dose. The mice were sacrificed 74 h after inflammation was induced and 2 h after the last injection of the compounds. The hind paws of the mice were photographed, the thicknesses of the paws were measured by a caliper, and the weights of the paws were measured by a balance after transecting at the level of the malleoli. To quantify the edema, the measured values of the untreated group were subtracted from the treated group. The inflammation suppression percentage was calculated by comparing the compound-treated groups to the control group (n=5). Fixed paw tissue was sliced and stained with H&E for histology study.

[2] = tested on: CXCR4-expressing infiltrating cells; assay: Immunohistochemistry of paw tissue with anti-CXCR4 antibody; type: in vivo; conditions: paw tissue of Z7R-treated mouse vs inflamed tissue
Procedure: The avidin-biotin complex method was used to detect the proteins CXCR4 with anti-CXCR4 antibody (R&D System) at dilution 1:500. Formalin-fixed and paraffin-embedded tissues were deparaffinized and subsequently microwaved in 10 mM of sodium citrate buffer (pH 6.0) to retrieve antigens. After pre-incubation with hydrogen peroxide, avidin/biotin blocking kit (Invitrogen Co, CA), and horse serum (Vector Laboratories), the primary antibodies were applied overnight at 4° C. temperature. After incubation with the secondary antibody (rabbit anti-mouse biotinylated; Invitrogen Co, CA), the avidin-biotin complex was added and the enzyme activity was visualized with diaminobenzidine (ABC kit, Vector laboratories). Counterstaining was performed with hematoxylin.

T1 sequence (P61073 whole entry): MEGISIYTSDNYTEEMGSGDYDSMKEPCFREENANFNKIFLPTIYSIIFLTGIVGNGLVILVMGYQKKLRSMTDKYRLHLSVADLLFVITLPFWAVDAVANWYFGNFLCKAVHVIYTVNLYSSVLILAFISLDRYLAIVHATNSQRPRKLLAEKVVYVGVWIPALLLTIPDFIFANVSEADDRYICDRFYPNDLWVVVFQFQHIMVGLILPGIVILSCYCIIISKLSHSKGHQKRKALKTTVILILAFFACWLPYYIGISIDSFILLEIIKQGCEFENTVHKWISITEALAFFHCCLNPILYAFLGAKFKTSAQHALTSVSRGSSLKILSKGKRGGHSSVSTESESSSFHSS

EC50 (CXCR4; compounds tested at 1, 10, 100 and 1000 nM, read-out: binding affinity (EC, effective concentration: concentration at which the compound blocks more than 50% of rhodamine Red X-TN14003)) | IC50 (CXCR4; fitted with GraphPad Prism 5, read-out: affinity IC50) | SMILES | inhibition at 0.1 µM (MDA-MB-231 cells) | anti-inflammatory activity: reduction of edema (paw) weight vs untreated mice [1] | CXCR4-expressing infiltrating cells in carrageenan-induced inflammatory tissue [2]
100 nM | – | NC(C(=O)NC1CCN(C(=O)CCn2ccc3ccncc32)CC1)c1ccccc1 (stereo not drawn) [ZINC 72372983, N-(1-(3-(pyrrolo[2,3-c]pyridin-1-yl)propanoyl)piperidin-4-yl)-2-amino-2-phenylacetamide] | 69% | – | –
– | 1.25 nM | N=C(N)NCCCC(N)C(=O)NC1CCN(C(=O)CCn2ccc3ccncc32)CC1 (stereo not drawn) [Z7R, N-(1-(3-(pyrrolo[2,3-c]pyridin-1-yl)propanoyl)piperidin-4-yl)-2-amino-5-guanidinopentanamide] | 78.5% | 50% | reduced presence of CXCR4s
